Measurements: US12350247B2, “Use of APE1/Ref-1 inhibitors for treatment of retinal diseases” (Indiana University Research and Technology Corporation, priority 2017, dated 2025)
Read-outs that look alike come from different tables or passages of the source.

Assays:
[1] = system: Pa03C and Panc10.05 tumor cells; assay: 3D spheroid / co-culture model of pancreatic cancer (both patient lines)
Protocol: Pa03C cells were plated into 3D cultures alone or with CAF19 cells.
Pa03C and Panc10.05 tumor cells were grown in 3D cultures in the presence of CAFs. Spheroids were treated with either single agents, vehicle (DMSO) or combination of targeted agents on days 4 and 8 (black arrows), and the intensity of tumor (red) and CAF (green) were quantified as described in Example 7 every 3-4 days in culture.

CAFs (CAF19 cells) = assay: 3D spheroid co-culture, CAF signal (green channel); conditions: for CC50: read-out: LC50, 3D Cultures, CAFs
[2] = system: human adenocarcinoma colon suspension cell line Colo-201; assay: Alamar blue cytotoxicity combination assay (CalcuSyn); assay type: cell-based
Protocol: Colo-201 (Yunhua Liu) was seeded in a 96-well tissue culture plate at 2000 cells/well in RPMI+Sodium Pyruvate+10% FBS and grown overnight at 37° C., 5% CO2. 2× Drug Media RPMI+Sodium Pyruvate+5% FBS was added at dosages of APX3330 (Apexian) in a 5-point spread from 75 uM to 6.3 uM and spiked with CPI-613 (Apexbio Technology) at 75 uM, or 50 uM, or alone for single agent. Cells were incubated 72 hours at 37° C., 5% CO2 and then 10% Alamar blue fluorescent cell viability indicator (INVITROGEN™) was added directly to plate. Indicator was incubated 4 hours at 37° C., 5% CO2, and then read on a fluorescent reader (SYNERGY™ H4 BioTek). […] FIG. 31D depicts Chou-Talalay Index (CI) of dose combinations (CalcuSyn). FIG. 31E depicts synergistic drug combinations (CalcuSyn) of APX3330 spiked with 50 uM CPI-613 or 75 uM CPI-613. […] Data shown is the average of 3 separate cytotoxicity assays; each assay normalized to media only control.

[3] = system: HCT-116 colon cancer cells; assay: Killing of colon cancer cells by APX3330 combined with CPI-613 (Example 4); assay type: cell-based, human; conditions: 0.2, 0.8, 1.6, 3.1, 6.3 μM APX3330 combined with 100 and 75 μM CPI-613
Protocol: Standard 3D co-culture assays as described in Example 2 were used to evaluate the cytotoxicity of the combination on tumor cells as well as cancer-associated fibroblasts.
As shown in FIGS. 15A-15C, there was greater than 50% killing of HCT-116 colon cancer cells using 0.2, 0.8, 1.6, 3.1, 6.3 μM APX3330 when combined with 100 and 75 μM CPI-613.

CCCCCCCCC/C(=C\C1=C(C)C(=O)C(OC)=C(OC)C1=O)C(=O)O [APX3330]
tumor cell growth in combination with SLC-0111 ([1]; 3D co-cultures with CAFs, APX3330 at 50 μM, APX2009 at 10 μM, APX2014 at 0.6 μM): significantly attenuated tumor cell growth | tumor killing in combination with napabucasin ([1]; 3D spheroid model (tumor and CAF)): synergistic tumor killing effect | single agent efficacy on 3D spheroid growth ([1]; treated on days 4 and 8, FIG. 17): reduced cell growth, cell proliferation | area of the CAFs (CAFs (CAF19 cells); APX3330 alone, co-culture with Pa03C): reduction in the area of the CAFs | CC50 (CAFs (CAF19 cells); co-culture with Pa03C, D12 curves): 57.3 µM | CC50 (CAFs (CAF19 cells); co-culture with Panc10.05, D12 curves): 59.4 µM | drug combination synergy (Chou-Talalay, CalcuSyn) ([2]; APX3330 75 uM and 50 uM spiked with 50 uM CPI-613, 72 hours): synergy was observed | drug combination synergy (Chou-Talalay, CalcuSyn) ([2]; all but one APX3330 dosage (6.3 uM), spiked with 75 uM CPI-613, 72 hours): Synergy was observed | killing of HCT-116 colon cancer cells [3]: greater than 50%
